Laboratory results taken from EP0618207B1, “Substituted pyridopyrimidines as antihypertensives” (AMERICAN HOME PRODUCTS CORPORATION, priority 1993, dated 1994).

Assays:
A II-infused rat model = assay: A II-infused rat model, antihypertensive action; format: in vivo, Rats; conditions: 3 mg/kg id, four hours post-administration
Experimental: In accordance with their ability to antagonize angiotensin II, the compounds of this invention show antihypertensive action in the following A II-infused rat model. Rats are anesthetized with Dial-Urethane (0.60 mL/kg, ip) and the trachea cannulated with PE 240. Either one femoral artery and both femoral veins or the carotid artery and the corresponding jugular vein are cannulated with PE 50. If the jugular vein is cannulated, two cannulas are placed in the one vein. The initial portion of the duodenum (just distal to the stomach) is cannulated with PE 50 via a small midline incision. Arterial pressure and heart rate are measured from the arterial cannula. Ten to 15 min are allowed following surgery for stabilization of arterial pressure. Ganglion blockade is then produced by intravenous administration of mecamylamine at 3 mg/kg (1 mL/kg of a 3 mg/mL solution). Ganglion blockade causes a fall in arterial pressure of about 50 mmHg. Mecamylamine is given every 90 min throughout the remainder of the experiment. An A II infusion is then begun into the other venous cannula at 0.25 µg/kg/min (at 9.6 µL/min). The A II infusion returns arterial pressure to or slightly above the control level. Once arterial pressure has stabilized with the A II infusion, baseline values for mean arterial pressure (MAP) and heart rate are taken. […]

[1] = tested on: Goldblatt (2K-1C) hypertensive rat model; assay: Goldblatt (2K-1C) hypertensive rat model, antihypertensive action; format: in vivo, Sprague-Dawley rats
Experimental: In further accordance with their ability to antagonize angiotensin II, the compounds of this invention show antihypertensive action in the following Goldblatt (2K-1C) hypertensive rat model. Sprague-Dawley rats weighing 150 g were anesthetized with pentobarbital (50 mg/kg ip) and the left renal artery was clipped with a silver wire bent to an internal diameter of 0.2 mm. The hypertension was established 4-7 weeks after clipping. At that time, the animals were anesthetized with pentobarbital (50 mg/kg ip) and the right carotid artery was cannulated. The catheter was passed subcutaneously to the dorsal side of the neck and exteriorized. The animals were fasted overnight but allowed access to water and the experiment was performed the next morning. The carotid catheter was connected to a blood pressure transducer which was linked to a MI^2 computer data acquisition system or to a Grass or Beckman recorder for the recording of mean arterial pressure (MAP) and heart rate. For oral administration, the rats were given either a compound of the invention (1, 3 or 10 mg/kg), losartan (30 mg/kg) as a standard or vehicle (0.5% methyl cellulose in distilled water) by gastric gavage (ig) in a volume of 5 mL/kg. For intravenous administration, the rats were given either a compound of the invention (0.03, 0.1, 1, 3 or 10 mg/kg) or vehicle (≦50% NaHCO3 in distilled water) in a volume of 1 mL/kg. In all experiments, saline was infused into the arterial cannula at 5 µL/min throughout the experiment to maintain patency of the cannula. Each compound was administered to a separate group of 6-12 rats and MAP and heart rate were recorded for 24 h. […] At each time point following dosing, averages were determined for absolute MAP, change in MAP (in mm Hg), and heart rate for all animals, and the standard error of the mean was calculated.

[2] = metabolic studies in rats; format: in vivo

For Cc1nc(CO)nc2c1CCC(=O)N2Cc1ccc(-c2ccccc2-c2nnn[nH]2)cc1 [Example 2, 2-Hydroxymethyl-4-methyl-8-[2'-(1H-tetrazol-5-yl)biphenyl-4-ylmethyl]-5,8-dihydro-6H-pyrido[2,3-d]pyrimidin-7-one], the “lowered the A II dependent blood pressure by an average of” value (A II-infused rat model) was 30%.

For Cc1nc(C)c2c(O)cc(=O)n(Cc3ccc(-c4ccccc4-c4nnn[nH]4)cc3)c2n1 [Example 4, 2,4-Dimethyl-5-hydroxy-8-[2'-(1H-tetrazol-5-yl)biphenyl-4-ylmethyl]-8H-pyrido[2,3-d]pyrimidin-7-one Sesquihydrate], the “maximum decrease in MAP” value ([1]; 0.1 mg/kg iv, 4 hours post-administration) was 67 mm Hg, the “maximum decrease in MAP” value ([1]; 10 mg/kg ig, 23 hours post-administration) was 66 mm Hg and the “identified as metabolite of the compound of Example 3 of U.S. Patent No. 5,149,599” value [2] was “significant metabolites”. For the same molecule, the “presence of metabolite (duration and amount), Example 4 compared with Example 6” value [2] was “present significantly longer and in greater amounts than the latter”.

With Cc1nc(C)c2c(n1)N(Cc1ccc(-c3ccccc3-c3nn[nH]n3)cc1)C(=O)CC2O (stereo not shown) [Example 6, 5-Hydroxy-2,4-dimethyl-8-[2'-(1H-tetrazol-5-yl)-biphenyl-4-ylmethyl]-6,8-dihydro-5H-pyrido[2,3-d]pyrimidine-7-one Hydrate 0.4 Etherate] the “maximum decrease in MAP” value ([1]; 10 mg/kg ig, 9 hours post-administration) was 71 mm Hg and the “identified as metabolite of the compound of Example 3 of U.S. Patent No. 5,149,599” value [2] was “significant metabolites”.
